ChEMBL document CHEMBL1129472, “The structure-activity relationship between peroxisome proliferator-activated receptor gamma agonism and the antihyperglycemic activity of thiazolidinediones” (J Med Chem, 1996)
pEC50: −log10 of the molar value.

Experiments:
Mus musculus = organism: Mus musculus; test: Minimum effective dose required for significant reduction in blood glucose in ob/ob mice; type: functional
[1] = target: T1, Peroxisome proliferator-activated receptor delta (Mus musculus, UniProt P35396); settings: cv-1
T1 sequence (P35396 whole entry): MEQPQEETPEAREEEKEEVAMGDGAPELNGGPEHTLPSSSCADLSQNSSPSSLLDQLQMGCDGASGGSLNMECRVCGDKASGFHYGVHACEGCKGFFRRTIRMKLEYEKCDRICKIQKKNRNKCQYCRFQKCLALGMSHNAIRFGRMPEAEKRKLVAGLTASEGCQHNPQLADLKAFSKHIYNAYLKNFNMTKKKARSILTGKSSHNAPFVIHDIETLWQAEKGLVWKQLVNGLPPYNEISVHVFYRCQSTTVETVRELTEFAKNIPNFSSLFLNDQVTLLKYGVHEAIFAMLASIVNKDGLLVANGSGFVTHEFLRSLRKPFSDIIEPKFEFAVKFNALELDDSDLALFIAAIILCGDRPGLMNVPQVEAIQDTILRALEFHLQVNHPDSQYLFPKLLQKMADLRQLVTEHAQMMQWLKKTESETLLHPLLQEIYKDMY

[2] = target: T2, Peroxisome proliferator-activated receptor alpha (Mus musculus, UniProt P23204); test: In vitro transcriptional activation of peroxisome proliferator activated alpha-receptor (PPAR) expressed in CV-1 cells; Inactive; type: functional, cell-based
T2 sequence (P23204 whole entry): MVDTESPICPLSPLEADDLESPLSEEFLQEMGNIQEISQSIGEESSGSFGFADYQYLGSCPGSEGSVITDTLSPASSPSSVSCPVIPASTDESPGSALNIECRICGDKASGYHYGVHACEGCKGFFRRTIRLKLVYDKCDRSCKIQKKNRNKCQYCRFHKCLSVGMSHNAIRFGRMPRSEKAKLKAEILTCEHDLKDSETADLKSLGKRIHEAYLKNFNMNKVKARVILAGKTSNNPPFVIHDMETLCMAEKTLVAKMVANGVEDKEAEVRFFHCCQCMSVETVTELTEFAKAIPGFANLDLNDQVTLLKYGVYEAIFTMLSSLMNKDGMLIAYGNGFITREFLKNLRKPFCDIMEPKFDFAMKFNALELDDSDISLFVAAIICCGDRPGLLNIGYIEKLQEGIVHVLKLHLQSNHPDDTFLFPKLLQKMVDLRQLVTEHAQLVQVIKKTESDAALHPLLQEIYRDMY

[3] = target: T3, Peroxisome proliferator-activated receptor gamma (Mus musculus, UniProt P37238)
T3 sequence (P37238 whole entry): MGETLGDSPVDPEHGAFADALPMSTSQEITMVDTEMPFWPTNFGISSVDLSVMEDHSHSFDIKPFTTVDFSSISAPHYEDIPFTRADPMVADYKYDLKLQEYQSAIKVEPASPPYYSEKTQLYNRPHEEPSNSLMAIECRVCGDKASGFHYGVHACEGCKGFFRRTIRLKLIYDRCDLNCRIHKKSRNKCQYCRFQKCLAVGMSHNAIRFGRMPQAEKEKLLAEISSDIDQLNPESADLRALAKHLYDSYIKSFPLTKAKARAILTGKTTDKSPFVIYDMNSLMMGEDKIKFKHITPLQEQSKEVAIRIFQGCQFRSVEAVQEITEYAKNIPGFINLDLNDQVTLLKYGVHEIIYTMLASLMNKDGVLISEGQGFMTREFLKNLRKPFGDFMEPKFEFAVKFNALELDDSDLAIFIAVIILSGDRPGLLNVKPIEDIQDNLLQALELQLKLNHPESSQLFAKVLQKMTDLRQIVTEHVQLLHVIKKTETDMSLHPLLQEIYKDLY
Description: In vitro transcriptional activation of Peroxisome proliferator activated receptor gamma (PPAR) expressed in CV-1 cells

[4] = target: T2, Peroxisome proliferator-activated receptor alpha; test: In vitro transcriptional activation of peroxisome proliferator activated alpha-receptor (PPAR) expressed in CV-1 cells; type: functional, cell-based

| Structure (SMILES) | EC50 [1] | EC50 [2] | pEC50 [3] | pEC50 [4] | MED (Mus musculus) [µM/kg] |
| --- | --- | --- | --- | --- | --- |
| CN(CCOc1ccc(/C=C2\SC(=O)NC2=O)cc1)c1nc2ccccc2o1 | Not Active | Not Active | 6.85 |  | 300 |
| CN(CCOc1ccc(C2SC(=O)NC2=O)cc1)c1nc2ccccc2o1 (configuration not stated) | Not Active | Not Active | 5.00 |  | >1000 |
| CN(CCOc1ccc(/C=C2\SC(=O)NC2=O)cc1)c1ccccn1 | Not Active | Not Active | 6.72 |  | 300 |
| CN(CCCOc1ccc(CC2SC(=O)NC2=O)cc1)c1nc2ccccc2o1 (configuration not stated) | Not Active | Not Active | 6.00 |  | 300 |
| O=C(O)CCC(=O)c1ccc(Oc2ccc(Cl)cc2)cc1 | Not Active |  | 3.96 | 4.10 |  |
| CN(CCOc1ccc(CC2SC(=O)NC2=O)cc1)c1nc2ccccc2o1 (configuration not stated) [BRL-48482] | Not Active | Not Active |  |  | 3 |

The next lines start with results.

| EC50 [1] | EC50 [2] | pEC50 [3] | pEC50 [4] | Structure (SMILES) | MED (Mus musculus) [µM/kg] |
| --- | --- | --- | --- | --- | --- |
| Not Active | Not Active | 5.52 |  | CC1(COc2ccc(CC3SC(=O)NC3=O)cc2)CCCCC1 (configuration not stated) [CIGLITAZONE] | 3000 |
| Not Active |  | 3.22 | 4.29 | CC(C)(Oc1ccc(Cl)cc1)C(=O)O [CLOFIBRIC ACID] |  |
| Not Active | Not Active | 4.89 |  | O=C1NC(=O)C(Cc2ccc3c(c2)CC[C@H](Cc2ccccc2)O3)S1 (some centres not stated) [ENGLITAZONE] |  |
| Not Active | Not Active |  |  | CCc1ccc(CCOc2ccc(CC3SC(=O)NC3=O)cc2)nc1 (configuration not stated) [PIOGLITAZONE] | 300 |
|  | Not Active |  |  | CN(CCOc1ccc(CC2SC(=O)NC2=O)cc1)c1ccccn1 (configuration not stated) [ROSIGLITAZONE] | 3 |
